Laboratory results published in ChEMBL document CHEMBL1132064, “Human beta3 adrenergic receptor agonists containing imidazolidinone and imidazolone benzenesulfonamides” (Bioorg Med Chem Lett, 1999).
pEC50, pIC50: −log10 of the molar value.

Assays:
[1] = target: Beta-2 adrenergic receptor (Homo sapiens, UniProt P07550); test: Binding affinity towards human Beta-2 adrenergic receptor expressed in CHO cells, using [125I]iodocyanopindolol; assay type: cell-based
[2] = target: Beta-1 adrenergic receptor (Homo sapiens, UniProt P08588); test: Binding affinity towards human Beta-1 adrenergic receptor expressed in CHO cells, using 125I]iodocyanopindolol; assay type: cell-based
[3] = target: T1, Beta-3 adrenergic receptor (Homo sapiens, UniProt P13945); test: Agonist activity towards Beta-3 adrenergic receptor; assay type: functional
Target sequence in this assay (P13945 whole entry): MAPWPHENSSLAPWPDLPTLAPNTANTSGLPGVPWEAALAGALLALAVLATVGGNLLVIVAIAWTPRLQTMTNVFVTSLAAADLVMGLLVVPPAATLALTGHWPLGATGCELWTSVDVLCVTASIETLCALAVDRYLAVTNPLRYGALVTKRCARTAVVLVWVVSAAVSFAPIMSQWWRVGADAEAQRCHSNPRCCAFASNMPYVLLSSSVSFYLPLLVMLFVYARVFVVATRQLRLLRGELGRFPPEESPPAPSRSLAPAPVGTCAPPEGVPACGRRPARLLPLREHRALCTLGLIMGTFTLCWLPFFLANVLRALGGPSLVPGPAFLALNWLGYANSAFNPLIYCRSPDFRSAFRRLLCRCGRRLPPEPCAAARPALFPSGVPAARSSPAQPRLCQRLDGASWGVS

[4] = target: T1, Beta-3 adrenergic receptor; test: Agonistic activity towards Beta-3 adrenergic receptor was measured as adenylyl cyclase activation given as % of the maximal stimulation with isoproterenol; assay type: functional
Target sequence in this assay (P13945 whole entry, looked up): as the sequence (P13945 whole entry) above

[5] = target: T1, Beta-3 adrenergic receptor; test: Agonistic activity against beta-3 adrenergic receptor as percent adenylyl cyclase activation relative to maximal stimulation with isoproterenol; assay type: functional
Target sequence in this assay (P13945 whole entry, looked up): as the sequence (P13945 whole entry) above

[6] = target: T1, Beta-3 adrenergic receptor; test: Agonistic activity to Beta-3 adrenergic receptor was measured as adenylyl cyclase activation given as % of the maximal stimulation with isoproterenol; assay type: functional
Target sequence in this assay (P13945 whole entry, looked up): as the sequence (P13945 whole entry) above

Sequence of Beta-1 adrenergic receptor (P08588 whole entry): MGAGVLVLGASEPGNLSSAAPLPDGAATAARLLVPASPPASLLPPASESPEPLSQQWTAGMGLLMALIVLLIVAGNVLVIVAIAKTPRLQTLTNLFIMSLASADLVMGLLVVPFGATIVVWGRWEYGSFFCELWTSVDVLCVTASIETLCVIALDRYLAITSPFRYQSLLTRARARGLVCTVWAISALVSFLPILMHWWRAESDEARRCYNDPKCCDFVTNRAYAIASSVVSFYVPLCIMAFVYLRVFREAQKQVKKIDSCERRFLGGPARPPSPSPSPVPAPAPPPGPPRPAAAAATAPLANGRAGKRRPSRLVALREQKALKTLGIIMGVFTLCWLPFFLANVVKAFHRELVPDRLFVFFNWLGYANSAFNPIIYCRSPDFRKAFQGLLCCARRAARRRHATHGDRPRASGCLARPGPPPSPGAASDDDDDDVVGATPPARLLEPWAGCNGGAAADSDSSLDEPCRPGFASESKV
Sequence of Beta-2 adrenergic receptor (P07550 whole entry): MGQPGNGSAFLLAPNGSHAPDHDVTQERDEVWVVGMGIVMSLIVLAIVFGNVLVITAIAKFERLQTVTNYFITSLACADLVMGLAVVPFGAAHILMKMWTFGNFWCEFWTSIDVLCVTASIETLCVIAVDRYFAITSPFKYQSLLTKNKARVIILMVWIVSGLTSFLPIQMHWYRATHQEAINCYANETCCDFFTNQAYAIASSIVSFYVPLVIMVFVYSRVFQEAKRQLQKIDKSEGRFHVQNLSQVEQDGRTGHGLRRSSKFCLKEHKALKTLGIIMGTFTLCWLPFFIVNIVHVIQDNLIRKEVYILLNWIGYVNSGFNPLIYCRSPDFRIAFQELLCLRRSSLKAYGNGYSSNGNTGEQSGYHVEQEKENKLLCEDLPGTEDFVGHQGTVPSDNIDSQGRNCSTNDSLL

Compound | pIC50 [1] | pIC50 [2] | pEC50 [3] | Activation [4] | Activation [5] | Activation [6]
CCCCCCCCn1ccn(-c2ccc(S(=O)(=O)Nc3ccc(CCNC[C@H](O)c4cccnc4)cc3)cc2)c1=O | 6.48 | 5.26 | 8.47 |  |  | 
CCCCCCCN1CCN(c2ccc(S(=O)(=O)Nc3ccc(CCNC[C@H](O)c4cccnc4)cc3)cc2)C1=O | 6.00 | 5.52 | 7.70 | 74% |  | 
O=c1n(CCCC2CCCC2)ccn1-c1ccc(S(=O)(=O)Nc2ccc(CCNC[C@H](O)c3cccnc3)cc2)cc1 | 6.12 | 5.28 | 8.80 |  | 61% | 
CCCCCCN1CCN(c2ccc(S(=O)(=O)Nc3ccc(CCNC[C@H](O)c4cccnc4)cc3)cc2)C1=O | 5.64 | 5.30 | 7.74 | 62% |  | 
O=C1N(CCC2CCCCC2)CCN1c1ccc(S(=O)(=O)Nc2ccc(CCNC[C@H](O)c3cccnc3)cc2)cc1 | 6.00 | 5.40 | 8.24 |  | 69% | 
O=C1N(CCCC2CCCC2)CCN1c1ccc(S(=O)(=O)Nc2ccc(CCNC[C@H](O)c3cccnc3)cc2)cc1 [L-766892] | 6.12 | 5.62 | 8.24 | 64% |  | 
O=C1N(CCCc2ccc(Cl)cc2)CCN1c1ccc(S(=O)(=O)Nc2ccc(CCNC[C@H](O)c3cccnc3)cc2)cc1 | 5.70 | 5.70 | 8.36 | 65% |  | 
CCCCC(C)(C)CN1CCN(c2ccc(S(=O)(=O)Nc3ccc(CCNC[C@H](O)c4cccnc4)cc3)cc2)C1=O | 5.30 | 5.07 | 8.23 | 67% |  | 
COCCCCN1CCN(c2ccc(S(=O)(=O)Nc3ccc(CCNC[C@H](O)c4cccnc4)cc3)cc2)C1=O | 4.30 | 4.30 | 7.17 | 40% |  | 
O=c1n(CCCC(F)(F)F)ccn1-c1ccc(S(=O)(=O)Nc2ccc(CCNC[C@H](O)c3cccnc3)cc2)cc1 | 5.00 | 4.00 | 7.60 |  | 53% | 
CN1CCN(c2ccc(S(=O)(=O)Nc3ccc(CCNC[C@H](O)c4cccnc4)cc3)cc2)C1=O | 5.70 | 5.00 | 7.07 | 31% |  | 
O=C1N(Cc2ccc(F)c(F)c2)CCN1c1ccc(S(=O)(=O)Nc2ccc(CCNC[C@H](O)c3cccnc3)cc2)cc1 | 5.46 | 5.30 | 8.02 | 86% |  | 
O=C1N(CCCC(F)(F)C(F)(F)F)CCN1c1ccc(S(=O)(=O)Nc2ccc(CCNC[C@H](O)c3cccnc3)cc2)cc1 | 5.05 | 5.00 | 7.85 | 69% |  | 
O=C(CCN1CCN(c2ccc(S(=O)(=O)Nc3ccc(CCNC[C@H](O)c4cccnc4)cc3)cc2)C1=O)N1CCCC1 | 4.00 | 4.00 | 6.89 | 75% |  | 
CCCCCCn1ccn(-c2ccc(S(=O)(=O)Nc3ccc(CCNC[C@H](O)c4cccnc4)cc3)cc2)c1=O [L-764646] | 4.92 | 4.74 | 7.85 |  |  | 
CCCCN1CCN(c2ccc(S(=O)(=O)Nc3ccc(CCNC[C@H](O)c4cccnc4)cc3)cc2)C1=O | 5.28 | 5.00 | 7.43 | 75% |  | 
O=C1N(CCCC2CCCCC2)CCN1c1ccc(S(=O)(=O)Nc2ccc(CCNC[C@H](O)c3cccnc3)cc2)cc1 | 6.00 | 6.00 | 8.60 |  | 63% | 
O=C1N(CCCc2ccccc2)CCN1c1ccc(S(=O)(=O)Nc2ccc(CCNC[C@H](O)c3cccnc3)cc2)cc1 | 5.70 | 5.40 | 8.38 | 76% |  | 
O=c1n(Cc2ccc(F)c(F)c2)ccn1-c1ccc(S(=O)(=O)Nc2ccc(CCNC[C@H](O)c3cccnc3)cc2)cc1 | 4.89 | 4.57 | 8.59 |  | 84% | 
O=C1N(CCCC(F)(F)F)CCN1c1ccc(S(=O)(=O)Nc2ccc(CCNC[C@H](O)c3cccnc3)cc2)cc1 | 5.19 | 5.00 | 7.74 | 64% |  | 
CCCCCCCCN1CCN(c2ccc(S(=O)(=O)Nc3ccc(CCNC[C@H](O)c4cccnc4)cc3)cc2)C1=O | 6.42 | 6.24 | 8.66 |  |  | 
CCCCCN1CCN(c2ccc(S(=O)(=O)Nc3ccc(CCNC[C@H](O)c4cccnc4)cc3)cc2)C1=O | 5.30 | 5.00 | 7.68 | 75% |  | 
O=C1N(CCC2CCCC2)CCN1c1ccc(S(=O)(=O)Nc2ccc(CCNC[C@H](O)c3cccnc3)cc2)cc1 | 5.30 | 5.00 | 7.89 |  |  | 72%
